{
  "source": "patent US20260041095A1",
  "about": "“A PRESERVATION METHOD” (AnalytiCon Discovery - Zweigniederlassung der BRAIN Biotech …, priority 2022, published 2026)",
  "type_in_all_cases": "cell-based",
  "key": {"Brettanomyces sp SUN08": {"system": "Brettanomyces sp SUN08", "experiment": "Antimicrobial activity (MIC), Brettanomyces sp SUN08", "settings": "potato dextrose broth pH 3.8, visual evaluation; for MIC: read-out: Minimal Inhibitory Concentration (MIC)"}, "Penicillium paneum SUN04": {"system": "Penicillium paneum SUN04", "experiment": "Antimicrobial activity (MIC), Penicillium paneum SUN04", "settings": "potato dextrose broth pH 3.8, visual evaluation; for MIC: read-out: Minimal Inhibitory Concentration (MIC)"}, "Byssochlamys nivea SUN10": {"system": "Byssochlamys nivea SUN10", "experiment": "Antimicrobial activity (MIC), Byssochlamys nivea SUN10", "settings": "potato dextrose broth pH 3.8, visual evaluation; for MIC: Paecilomyces niveus, read-out: Minimal Inhibitory Concentration (MIC)"}, "[1]": {"system": "Zygosaccharomyces bailli SUN02", "experiment": "Antimicrobial activity (MIC), Zygosaccharomyces bailli SUN02", "settings": "potato dextrose broth pH 3.8, visual evaluation; for MIC: read-out: Minimal Inhibitory Concentration (MIC)"}, "[2]": {"system": "Neosartorya fischeri SUN09", "experiment": "Antimicrobial activity (MIC), Neosartorya fischeri SUN09", "settings": "potato dextrose broth pH 3.8, visual evaluation; for MIC: Aspergillus fischeri, read-out: Minimal Inhibitory Concentration (MIC)"}, "[3]": {"system": "Saccharomyces cerevisiae SUN06", "experiment": "Antimicrobial activity (MIC), Saccharomyces cerevisiae SUN06", "settings": "potato dextrose broth pH 3.8, visual evaluation; for MIC: read-out: Minimal Inhibitory Concentration (MIC)"}, "[4]": {"system": "Zygosaccharomyces bailli SUN07", "experiment": "Antimicrobial activity (MIC), Zygosaccharomyces bailli SUN07", "settings": "potato dextrose broth pH 3.8, visual evaluation; for MIC: read-out: Minimal Inhibitory Concentration (MIC)"}, "Asaia siamensis SUN03": {"system": "Asaia siamensis SUN03", "experiment": "Antimicrobial activity (MIC), Asaia siamensis SUN03", "settings": "potato dextrose broth pH 3.8, visual evaluation; for MIC: read-out: Minimal Inhibitory Concentration (MIC)"}, "[5]": {"system": "Saccharomyces cerevisiae SUN01", "experiment": "Antimicrobial activity (MIC), Saccharomyces cerevisiae SUN01", "settings": "potato dextrose broth pH 3.8, visual evaluation; for MIC: read-out: Minimal Inhibitory Concentration (MIC)"}, "[6]": {"system": "Candida parapsilosis SUN05", "experiment": "Antimicrobial activity (MIC), Candida parapsilosis SUN05", "settings": "potato dextrose broth pH 3.8, visual evaluation; for MIC: Lodderomyces parapsilosis, read-out: Minimal Inhibitory Concentration (MIC)"}, "[7]": {"system": "Alicyclobacillus acidoterrestris DSM 2498", "experiment": "Antimicrobial activity (MIC), Alicyclobacillus acidoterrestris DSM 2498", "settings": "DSM2498, potato dextrose broth pH 3.8, visual evaluation, read-out: Minimal Inhibitory Concentration (MIC)"}, "[8]": {"system": "Leuconostoc lactis DSM 20202", "experiment": "Antimicrobial activity (MIC), Leuconostoc lactis DSM 20202", "settings": "DSM20202, potato dextrose broth pH 3.8, visual evaluation, read-out: Minimal Inhibitory Concentration (MIC)"}, "[9]": {"system": "Bacillus subtilis ATCC 6633", "experiment": "Antimicrobial activity (MIC), Bacillus subtilis ATCC 6633", "settings": "ATCC6633, potato dextrose broth pH 3.8, visual evaluation, read-out: Minimal Inhibitory Concentration (MIC)"}},
  "data": [
    {"smiles": "O=C(O)CC(O)CCCCCCCCCCCC(O)CO[C@@H]1O[C@H](COC(=O)O)[C@@H](O[C@@H]2O[C@H](CO)[C@@H](O)[C@H](O)[C@H]2O)[C@H](O)[C@H]1O", "note": "(stereo partly drawn) [NP-018428]", "values": [
      {"measurement": "Minimal Inhibitory Concentration (MIC)", "setting": "Brettanomyces sp SUN08", "result": "inact."},
      {"measurement": "Minimal Inhibitory Concentration (MIC)", "setting": "Penicillium paneum SUN04", "result": "inact."},
      {"measurement": "Minimal Inhibitory Concentration (MIC)", "setting": "Byssochlamys nivea SUN10", "result": "inact."},
      {"measurement": "Minimal Inhibitory Concentration (MIC)", "setting": "[1]", "result": "inact."},
      {"measurement": "MIC", "setting": "[2]", "result": 500, "unit": "µg/mL"},
      {"measurement": "Minimal Inhibitory Concentration (MIC)", "setting": "[3]", "result": "inact."},
      {"measurement": "Minimal Inhibitory Concentration (MIC)", "setting": "[4]", "result": "inact."},
      {"measurement": "Minimal Inhibitory Concentration (MIC)", "setting": "Asaia siamensis SUN03", "result": "inact."},
      {"measurement": "Minimal Inhibitory Concentration (MIC)", "setting": "[5]", "result": "inact."},
      {"measurement": "Minimal Inhibitory Concentration (MIC)", "setting": "[6]", "result": "inact."}
    ]},
    {"smiles": "CCCC(O)CC(=O)OC[C@H]1O[C@@H](O[C@H]2[C@H](O)[C@@H](O)[C@H](OCC(O)CCCCCCCCCCCCC(O)C(=O)O)O[C@@H]2COC(C)=O)[C@H](O)[C@@H](O)[C@@H]1O", "note": "(stereo partly drawn) [NP-018459]", "values": [
      {"measurement": "Minimal Inhibitory Concentration (MIC)", "setting": "Brettanomyces sp SUN08", "result": "inact."},
      {"measurement": "MIC", "setting": "Penicillium paneum SUN04", "result": 500, "unit": "µg/mL"},
      {"measurement": "Minimal Inhibitory Concentration (MIC)", "setting": "Byssochlamys nivea SUN10", "result": "inact."},
      {"measurement": "Minimal Inhibitory Concentration (MIC)", "setting": "[1]", "result": "inact."},
      {"measurement": "MIC", "setting": "[2]", "result": 500, "unit": "µg/mL"},
      {"measurement": "Minimal Inhibitory Concentration (MIC)", "setting": "[3]", "result": "inact."},
      {"measurement": "MIC", "setting": "[4]", "result": 500, "unit": "µg/mL"},
      {"measurement": "Minimal Inhibitory Concentration (MIC)", "setting": "Asaia siamensis SUN03", "result": "inact."},
      {"measurement": "Minimal Inhibitory Concentration (MIC)", "setting": "[5]", "result": "inact."},
      {"measurement": "Minimal Inhibitory Concentration (MIC)", "setting": "[6]", "result": "inact."}
    ]},
    {"smiles": "CCCCCC(O)CC(=O)O[C@H]1[C@H](O[C@H]2[C@H](O)[C@@H](O)[C@H](OCC(O)CCCCCCCCCCCCCC(=O)O)O[C@@H]2COC(C)=O)O[C@H](CO)[C@@H](O)[C@@H]1O", "note": "(stereo partly drawn) [NP-018752]", "values": [
      {"measurement": "Minimal Inhibitory Concentration (MIC)", "setting": "Brettanomyces sp SUN08", "result": "inact."},
      {"measurement": "Minimal Inhibitory Concentration (MIC)", "setting": "Penicillium paneum SUN04", "result": "inact."},
      {"measurement": "MIC", "setting": "Byssochlamys nivea SUN10", "result": 500, "unit": "µg/mL"},
      {"measurement": "MIC", "setting": "[1]", "result": 500, "unit": "µg/mL"},
      {"measurement": "Minimal Inhibitory Concentration (MIC)", "setting": "[2]", "result": "inact."},
      {"measurement": "MIC", "setting": "[3]", "result": 500, "unit": "µg/mL"},
      {"measurement": "MIC", "setting": "[4]", "result": 500, "unit": "µg/mL"},
      {"measurement": "MIC", "setting": "[7]", "result": 4, "unit": "µg/mL"},
      {"measurement": "Minimal Inhibitory Concentration (MIC)", "setting": "Asaia siamensis SUN03", "result": "inact."},
      {"measurement": "Minimal Inhibitory Concentration (MIC)", "setting": "[5]", "result": "inact."},
      {"measurement": "Minimal Inhibitory Concentration (MIC)", "setting": "[6]", "result": "inact."}
    ]},
    {"smiles": "CCCCCCCC(=O)O[C@H]1[C@H](O[C@H]2[C@H](O)[C@@H](O)[C@H](OCC(O)CCCCCCCCCCCCC(O)C(=O)O)O[C@@H]2COC(C)=O)O[C@H](CO)[C@@H](O)[C@@H]1O", "note": "(stereo partly drawn) [NP-018753]", "values": [
      {"measurement": "MIC", "setting": "Brettanomyces sp SUN08", "result": 500, "unit": "µg/mL"},
      {"measurement": "MIC", "setting": "Penicillium paneum SUN04", "result": 500, "unit": "µg/mL"},
      {"measurement": "MIC", "setting": "Byssochlamys nivea SUN10", "result": "≤ 31.2", "unit": "µg/mL"},
      {"measurement": "MIC", "setting": "[1]", "result": "≤ 31.2", "unit": "µg/mL"},
      {"measurement": "MIC", "setting": "[2]", "result": "≤ 31.2", "unit": "µg/mL"},
      {"measurement": "MIC", "setting": "[3]", "result": "≤ 31.2", "unit": "µg/mL"},
      {"measurement": "MIC", "setting": "[4]", "result": "≤ 31.2", "unit": "µg/mL"},
      {"measurement": "MIC", "setting": "Asaia siamensis SUN03", "result": "> 500", "unit": "µg/mL"},
      {"measurement": "MIC", "setting": "[5]", "result": "≤ 31.2", "unit": "µg/mL"},
      {"measurement": "MIC", "setting": "[6]", "result": "≤ 31.2", "unit": "µg/mL"}
    ]},
    {"smiles": "O=C(O)OC[C@H]1O[C@@H](OCC(O)CCCCCCCCCCC/C=C(\\O)C(=O)O)[C@H](O)[C@@H](O)[C@@H]1O[C@@H]1O[C@H](CO)[C@@H](O)[C@H](O)[C@H]1OC(=O)CC(O)CCO", "note": "(stereo partly drawn) [NP-018756]", "values": [
      {"measurement": "MIC", "setting": "Brettanomyces sp SUN08", "result": 250, "unit": "µg/mL"},
      {"measurement": "MIC", "setting": "Penicillium paneum SUN04", "result": 250, "unit": "µg/mL"},
      {"measurement": "MIC", "setting": "Byssochlamys nivea SUN10", "result": "≤ 125", "unit": "µg/mL"},
      {"measurement": "MIC", "setting": "[1]", "result": 250, "unit": "µg/mL"},
      {"measurement": "MIC", "setting": "[2]", "result": "≤ 125", "unit": "µg/mL"},
      {"measurement": "MIC", "setting": "[3]", "result": 250, "unit": "µg/mL"},
      {"measurement": "MIC", "setting": "[4]", "result": 250, "unit": "µg/mL"},
      {"measurement": "MIC", "setting": "[8]", "result": 600, "unit": "µg/mL"},
      {"measurement": "MIC", "setting": "[9]", "result": 600, "unit": "µg/mL"},
      {"measurement": "MIC", "setting": "[7]", "result": 16, "unit": "µg/mL"},
      {"measurement": "MIC", "setting": "Asaia siamensis SUN03", "result": "> 500", "unit": "µg/mL"},
      {"measurement": "MIC", "setting": "[5]", "result": 250, "unit": "µg/mL"},
      {"measurement": "MIC", "setting": "[6]", "result": 500, "unit": "µg/mL"}
    ]}
  ]
}
